{"source": "paper PMC3971658", "about": "(The Journal of General Physiology, 2014)", "key": {"[1]": {"tested_on": "R-type current, rat DRG neurons", "format": "cell-based"}, "[2]": {"tested_on": "R-type current, thalamocortical neurons", "conditions": "cited from earlier work"}, "[3]": {"tested_on": "human Cav2.3c (α1E-c) channel alone", "format": "cell-based", "conditions": "50 µM"}, "[4]": {"tested_on": "human Cav2.1 (α1A-2) channel alone", "format": "cell-based", "conditions": "50 µM"}, "Human Cav2.3d": {"tested_on": "Human Cav2.3d", "format": "cell-based", "conditions": "50 µM"}, "Human Cav2.3c": {"tested_on": "Human Cav2.3c", "format": "cell-based", "conditions": "50 µM"}, "Human Cav2.1": {"tested_on": "Human Cav2.1", "format": "cell-based", "conditions": "50 µM"}, "[5]": {"tested_on": "c-Src / human Cav2.1 channel and GABABR", "format": "cell-based"}, "[6]": {"tested_on": "human Cav2.3c channel and GABABR"}, "Rabbit Cav2.1": {"tested_on": "Rabbit Cav2.1", "format": "cell-based", "conditions": "50 µM"}}}
{"smiles": "NCC(CC(=O)O)c1ccc(Cl)cc1", "note": "(stereo not shown) [Baclofen, baclofen]", "values": [{"measurement": "R-type current inhibition", "setting": "[1]", "value": "R-type current inhibition by baclofen"}, {"measurement": "R-type current modulation", "setting": "[2]", "value": "R-type current modulation by baclofen has been demonstrated"}, {"measurement": "IBa inhibition", "setting": "[3]", "value": "0 (6) %"}, {"measurement": "IBa inhibition", "setting": "[4]", "value": "0 (5) %"}, {"measurement": "IBa inhibition", "setting": "Human Cav2.3d", "value": "33.1 ± 1.8 (8) %"}, {"measurement": "IBa inhibition", "setting": "Human Cav2.3c", "value": "44.0 ± 3.0 (10) %"}, {"measurement": "IBa inhibition", "setting": "Human Cav2.1", "value": "44.4 ± 1.9 (9) %"}, {"measurement": "baclofen inhibition of IBa with wild-type c-Src overexpression or pp60c-Src peptide", "setting": "[5]", "value": "did not affect baclofen inhibition of IBa"}, {"measurement": "V0.5,act", "setting": "[6]", "value": "−3.44 ± 0.67", "unit": "mV"}, {"measurement": "IBa inhibition", "setting": "Rabbit Cav2.1", "value": "^#50.0 ± 5.0 (8) %"}]}
